Data published in PubChem BioAssay AID602487 (The Scripps Research Institute Molecular Screening Center, 2012).
Active and inactive are the calls of the source. How the calls were made is not given here.

The molecules below were run on SARS coronavirus 3C-like protease (3CLpro) (assay: SARS 3CLpro protease inhibitors, late-stage follow-up, biochemical, fluorescence, single concentration, set 5 (AID 602487)). Details: purified 3CLpro, fluorogenic substrate cleavage; at 100 µM; stronger effect = higher value.
In the case of `CC(=O)Nc1ccc(N(C(=O)Cn2ccnn2)C(C(=O)NC(C)(C)C)c2ccsc2)cc1` (stereo not given), the inhibition is reported as 5.4% (inactive). For `CC(=O)Nc1ccc(N(C(=O)Cn2cc([Si](C)(C)C)nn2)C(C(=O)NC(C)(C)C)c2ccsc2)cc1` (stereo not given), the inhibition was -3.9% (inactive). `CC(C)C(=O)Nc1ccc(N(Cc2ccsc2)C(=O)Cn2cc([Si](C)(C)C)nn2)cc1` was tested, and the inhibition was 4.5% (inactive). With `CC(C)C(=O)Nc1ccc(N(Cc2ccsc2)C(=O)Cn2ccnn2)cc1` the inhibition was 26.1% (inactive). `CC(C)C(=O)Nc1ccc(N(Cc2ccsc2)C(=O)Cn2cc(-c3ccccc3)nn2)cc1` was tested, and the inhibition was 3.7% (inactive).
